Experimental data: patent US4261986A, “4-Halo etianic acids and derivatives thereof” (Syntex (U.S.A.) Inc., priority 1979, dated 1981)

What was measured:
thymus gland = conditions: rat, in vivo, sc
Method: The compounds to be tested for thymolytic activity including a hydrocortisone (HC) standard, were prepared in three or more concentrations by suspension in a sodium carboxymethyl-cellulose vehicle. Animals received the test materials by subcutaneous injection of 0.5 ml of the suspension on each of three successive days. Four hours following the final injection, the rats were sacrificed and the thymus gland of each animal removed and weighed. These weights are then employed to establish dose-response graphs by methods known in the art.

[1] = therapeutic advantage (topical potency versus systemic activity); format: in vivo; conditions: in words
Method: The topical anti-inflammatory activity potential for each compound was assayed using a modified Stoughton/-McKenzie vaso-constriction assay in humans, V. A. Place, et al, Arch. […]. 101, 531-537 (1970). Eight normal adult human subjects were treated on each forearm by topical administration with alcohol solutions containing 1×10^-5 and 1×10^-6 g/ml of each of the compounds to provide 64 total test sites for each compound in a series (32 for each concentration). Areas of the subjects' forearms were outlined by a rubber stamp grid coated with silicone grease, and 10 microliters are applied per 7×7 mm square site. After the preparations have dried, the areas on each forearm are covered with Saran® wrap and the margins sealed with tape. The occlusive wrap is removed after 18 hours. Twenty-four hours after application, the presence of vasoconstriction is noted by visual examination, and expressed as the number of sites responding (vasoconstriction). Fluocinolone acetonide is used as a standard. Also, the intensity of the vasoconstriction is scorred on a 0, 1, 2 scale, 2 being the most intense reaction. Both scores are used in constructing dose-response graphs according to methods set forth in an article by V. A. Place et al, infra. […]

[2] = system: normal adult human subjects (vasoconstriction); test: topical anti-inflammatory activity, modified Stoughton/McKenzie vasoconstriction assay in humans; format: in vivo
Source text: The compounds of Formula (I) where R is alkyl of 1-6 carbon atoms, haloalkyl of 1-6 carbons or phenyl or benzyl optionally substituted on the phenyl ring with alkyl of 1-4 carbons, alkoxy of 1-4 carbons or halo and R^1, R^2, X^1, X^2, X^3 and X^4 are as defined in the broadest aspect of the invention are useful for the relief of inflamed conditions in mammals, and more specifically are useful for relieving inflammatory manifestations of corticosteroid responsive dermatoses. Initial approximation of anti-inflammatory activity is done by following the procedure of McKenzie, S. W. and Stoughton, R. B., "Methods for Comparing Percutaneous Absorption of Steroids" Arch Dermat, 86, (1962) or modifications thereof.
The topical anti-inflammatory activity potential for each compound was assayed using a modified Stoughton/-McKenzie vaso-constriction assay in humans, V. A. Place, et al, Arch. Dermat. 101, 531-537 (1970). Eight normal adult human subjects were treated on each forearm by topical administration with alcohol solutions containing 1×10^-5 and 1×10^-6 g/ml of each of the compounds to provide 64 total test sites for each compound in a series (32 for each concentration). […] Twenty-four hours after application, the presence of vasoconstriction is noted by visual examination, and expressed as the number of sites responding (vasoconstriction). […]

[3] = LD50, single subcutaneous injection, mortality observed for 21 days; format: in vivo, mouse; conditions: mouse, in vivo, sc; Swiss-Webster mice, subcutaneous, 21 days observation
Method: (§1) Six Swiss-Webster mice (Simonsen) each weighing about 25 grams, were injected subcutaneously with a solution of methyl 6α,9α-difluoro-11β-hydroxy-16α-methyl-3-oxo-17α-n-propionyloxyandrosta-1,4-diene 17β-thiocarboxylate in […] having a concentration of 10 ml/kg. The dosage was 25 mg/kg or about 0.625 mg/mouse. The mice were observed daily for mortality for 21 days.

Swiss-Webster mice = test: as above; format: in vivo, mouse; conditions: six mice, 25 mg/kg subcutaneous, 21 days
Method: as §1

Structure (SMILES) | systemic activity relative to HC (thymus gland) [times HC] | thymolytic activity (thymus gland) | therapeutic advantage [1] | topical potency relative to FA ([2]; alcohol solutions 1×10^-5 and 1×10^-6 g/ml, fluocinolone acetonide standard) | topical potency ([2]; in words) | LD50 at 504 h [3] [mg/kg] | mortality (Swiss-Webster mice)
CCC(=O)O[C@]1(C(=O)OC)[C@H](C)C[C@H]2[C@@H]3C[C@H](F)C4=C(F)C(=O)C=C[C@]4(C)[C@@]3(F)[C@@H](O)C[C@@]21C [methyl 4,6α,9α-trifluoro-11β-hydroxy-16α-methyl-3-oxo-17α-propionyloxyandrosta-1,4-diene 17β-carboxylate] | 10 | slight activity in the dose range of hydrocortisone | distinct therapeutic advantage | 1-2 time FA | excellent topical potency | – | –
CCC(=O)O[C@]1(C(=O)SC)[C@H](C)C[C@H]2[C@@H]3C[C@H](F)C4=CC(=O)C=C[C@]4(C)[C@@]3(F)[C@@H](O)C[C@@]21C [methyl 6α,9α-difluoro-11β-hydroxy-16α-methyl-3-oxo-17α-n-propionyloxyandrosta-1,4-diene 17β-thiocarboxylate] | – | – | – | – | – | > 25 | One mouse died
